Legend:
Type in all cases: cell-based
[1] = tested on: Ba/F3 cells expressing EGFR Del19/C797S (EGFR DC); test: Proliferation inhibitory activity, Ba/F3 cells expressing EGFR Del19/C797S (CellTiter-Glo); details: Mus musculus, BaF3, 72 hours of compound treatment
Outline: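 Viability after 72 h of compound exposure was measured by luminescence (CellTiter-Glo) in Ba/F3 lines transduced with mutant EGFR. Final concentrations spanned 0.2 nM–5 μM over 12 threefold steps. Growth relative to untreated control gave GI50 values; each test was run three times.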

[2] = tested on: Ba/F3 S768I (EGFR mutation); test: Proliferation inhibitory activity, Ba/F3 cells expressing EGFR S768I; details: Mus musculus, BaF3, 72 hours, CellTiter-Glo
Protocol: (§1) The following experiments were performed to evaluate the inhibitory activity of the compounds according to the present disclosure on Ba/F3 proliferation expressing EGFR C797S, L861Q, G719A, S768I, L718Q, and/or G724S mutations.
(§2) For Ba/F3 cells, RPMI-1640 containing 10% FBS and 5 ng/ml IL-3 (R&D Systems) was used. Transduced Ba/F3 cells were cultured after adding 1 μg/ml puromycin (Invitrogen) to the same medium.
(§3) At 24 hours before treatment with the compounds, 3000 to 5000 cells were aliquoted into each well of a white clear bottom 96 well plate (Corning). The compounds were diluted in dimethyl sulfoxide (3 times dilution, 12 concentrations in total), and injected in an amount of 1 μl so that the final concentration was 0.2 nM to 5 uM. For measurement of living cells, after 72 hours of compound treatment, the cells were stored at room temperature for 10 min using CellTiter-Glo luminescentcell-viability reagent (Promega), and then luminescence intensity was measured using a reader (SynergyNeo, Biotek). Each test was repeated three times. Result values were calculated as the cell growth rate (%) compared to the control. The graphs were created using GraphPad Prism version 8.3.0 program and the GI50 values were calculated.

[3] = tested on: Ba/F3 L861Q (EGFR mutation); test: Proliferation inhibitory activity, Ba/F3 cells expressing EGFR L861Q; details: Mus musculus, BaF3, 72 hours, CellTiter-Glo
Protocol: as §1, §2, §3

[4] = tested on: Ba/F3 G719A (EGFR mutation); test: Proliferation inhibitory activity, Ba/F3 cells expressing EGFR G719A; details: Mus musculus, BaF3, 72 hours, CellTiter-Glo
Protocol: as §1, §2, §3

[5] = tested on: Ba/F3 cells expressing EGFR L858R/C797S (EGFR LC); test: Proliferation inhibitory activity, Ba/F3 cells expressing EGFR L858R/C797S (CellTiter-Glo); details: Mus musculus, BaF3, 72 hours of compound treatment
Protocol: as §1, §2, §3

SMILES | GI50 [1] | GI50 [2] | GI50 [3] | GI50 [4] | GI50 [5]
COc1cc(N2CCC(N3CCN(C)CC3)CC2)c(-c2cnn(C)c2)cc1Nc1cc(N2OCC[C@@H]2c2cc(F)cc(F)c2)ncn1 [Example 8, (R)-6-(3-(3,5-difluorophenyl)isoxazolidin-2-yl)-N-(2-methoxy-5-(1-methyl-1H-pyrazol-4-yl)-4-(4-(4-methylpiperazin-1-yl)piperidin-1-yl)phenyl)pyrimidin-4-amine] | < 50 nM |  |  |  | < 50 nM
COc1cc(N2CCC(N3CCC(N(C)C)CC3)CC2)c(-c2cnn(C)c2)cc1Nc1cc(N2OCC[C@@H]2c2cc(F)cc(F)c2)ncn1 [Example 10, (R)-1′-(4-((6-(3-(3,5-difluorophenyl)isoxazolidin-2-yl)pyrimidin-4-yl)amino)-5-methoxy-2-(1-methyl-1H-pyrazol-4-yl)phenyl)-N,N-dimethyl-[1,4′-bipiperidin]-4-amine] | 50 to 500 nM |  |  |  | 50 to 500 nM
CN1CCN(C2CCN(c3cc(Nc4cc(N5OCC[C@@H]5c5cc(F)cc(F)c5)ncn4)cc(S(C)(=O)=O)c3)CC2)CC1 [Example 11, (R)-6-(3-(3,5-difluorophenyl)isoxazolidin-2-yl)-N-(3-(4-(4-methylpiperazin-1-yl)piperidin-1-yl)-5-(methylsulfonyl)phenyl)pyrimidin-4-amine] | 50 to 500 nM |  |  |  | 50 to 500 nM
CN(C)C1CCN(C2CCN(c3ccc(Nc4cc(N5OCC[C@@H]5c5ccccc5)ncn4)cc3)CC2)CC1 [Example 84, (R)—N,N-dimethyl-1′-(4-((6-(3-phenylisoxazolidin-2-yl)pyrimidin-4-yl)amino)phenyl)-[1,4′-bipiperidin]-4-amine] | < 50 nM |  |  |  | < 50 nM
COc1cc(Nc2cc(N3OCC[C@@H]3c3ccccc3)ncn2)ccc1N1CCN(C2CCN(C)CC2)CC1 [Example 102, (R)—N-(3-methoxy-4-(4-(1-methylpiperidin-4-yl)piperazin-1-yl)phenyl)-6-(3-phenylisoxazolidin-2-yl)pyrimidin-4-amine] | < 50 nM |  |  |  | < 50 nM
COc1cc(Nc2cc(N3OCC[C@@H]3c3cccc(F)c3F)ncn2)ccc1N1CCC(N2CCN(C)CC2)CC1 [Example 128, (R)-6-(3-(2,3-difluorophenyl)isoxazolidin-2-yl)-N-(3-methoxy-4-(4-(4-methylpiperazin-1-yl)piperidin-1-yl)phenyl)pyrimidin-4-amine] | < 50 nM |  |  |  | < 50 nM

Second part, the compound after the results:

GI50 [1] | GI50 [2] | GI50 [3] | GI50 [4] | GI50 [5] | SMILES
< 50 nM | 50 to 500 nM | < 50 nM | < 50 nM | < 50 nM | COc1cc(Nc2cc(N3OCC[C@@H]3c3ccccc3)ncn2)ccc1N1CCC(N2CCN(C)CC2)CC1 [Example 4, (R)—N-(3-methoxy-4-(4-(4-methylpiperazin-1-yl)piperidin-1-yl)phenyl)-6-(3-phenylisoxazolidin-2-yl)pyrimidin-4-amine]
50 to 500 nM |  |  |  | 50 to 500 nM | CS(=O)(=O)c1cc(Nc2cc(N3OCC[C@@H]3c3cc(F)cc(F)c3)ncn2)cc(N2CCC(N3CCOCC3)CC2)c1 [Example 12, (R)-6-(3-(3,5-difluorophenyl)isoxazolidin-2-yl)-N-(3-(methylsulfonyl)-5-(4-morpholinopiperidin-1-yl)phenyl)pyrimidin-4-amine]
50 to 500 nM |  |  |  | 50 to 500 nM | CN1CCN(c2cc(Nc3cc(N4OCC[C@@H]4c4cc(F)cc(F)c4)ncn3)cc(S(C)(=O)=O)c2)CC1 [Example 13, (R)-6-(3-(3,5-difluorophenyl)isoxazolidin-2-yl)-N-(3-(4-methylpiperazin-1-yl)-5-(methylsulfonyl)phenyl)pyrimidin-4-amine]
< 50 nM |  |  |  | < 50 nM | CN1CCN(c2cc(Nc3cc(N4OCC[C@@H]4c4cc(F)cc(F)c4)ncn3)cc(C(C)(C)C#N)c2)CC1 [Example 15, (R)-2-(3-((6-(3-(3,5-difluorophenyl)isoxazolidin-2-yl)pyrimidin-4-yl)amino)-5-(4-methylpiperazin-1-yl)phenyl)-2-methylpropanenitrile]
< 50 nM |  |  |  | < 50 nM | Cc1cc(Nc2cc(N3OCC[C@@H]3c3ccc(F)cc3F)ncn2)ccc1N1CCC(N2CCN(C)CC2)CC1 [Example 104, (R)-6-(3-(2,4-difluorophenyl)isoxazolidin-2-yl)-N-(3-methyl-4-(4-(4-methylpiperazin-1-yl)piperidin-1-yl)phenyl)pyrimidin-4-amine]
< 50 nM |  |  |  | < 50 nM | COc1cc(N2CCC(N3CCN(C)CC3)CC2)ccc1Nc1cc(N2OCC[C@@H]2c2ccc(Cl)c(F)c2)ncn1 [Example 129, (R)-6-(3-(4-chloro-3-fluorophenyl)isoxazolidin-2-yl)-N-(2-methoxy-4-(4-(4-methylpiperazin-1-yl)piperidin-1-yl)phenyl)pyrimidin-4-amine]
< 50 nM |  |  |  | < 50 nM | COc1cc(N2CCC(N3CCN(C)CC3)CC2)c(Cl)cc1Nc1cc(N2OCC[C@@H]2c2ccccc2)ncn1 [Example 132, (R)—N-(5-chloro-2-methoxy-4-(4-(4-methylpiperazin-1-yl)piperidin-1-yl)phenyl)-6-(3-phenylisoxazolidin-2-yl)pyrimidin-4-amine]
